Values of other authors in paper PMC4891657, “Orexin 2 Receptor Antagonism is Sufficient to Promote NREM and REM Sleep from Mouse to Man” (Scientific Reports, 2016).

What was measured:
OX2R relative to OX1R = settings: cited from earlier work
OX2R = tested on: OX2R; design: method as in PMID 24376396, PMID 24368893; settings: mice, 50 mg/kg ref 37, 38; cited from earlier work

In the case of COc1ccnc(N2CCC3(CCCN(Cc4c[nH]c5ccccc45)C3=O)CC2)n1 [IPSU], the OX2R/OX1R selectivity (OX2R relative to OX1R) is given as 6.2 fold and the “calculated OX2R occupancy achieved” value (OX2R) is given as 48%.
In the case of CC1(C)OC[C@H](NC(=O)Nc2ccc(Br)cc2Br)[C@H](c2ccccc2)O1 [JNJ-10397049], the OX2R selective (OX2R relative to OX1R) is listed as ~ 320 x.
For Cc1cc(C)nc(N2CC3CN(C(=O)c4c(F)cccc4-n4nccn4)CC3C2)n1 (centres unmarked) [JNJ-42847922], the “binding selectivity for OX2R relative to OX1R” value (OX2R relative to OX1R) is given as ~ 80 fold.
For Cc1cc(NC(=O)Nc2ccc(N(C)C)cc2)c2cc(F)cc(F)c2n1 [SB-408124], the OX1R selective (OX2R relative to OX1R) is given as ~ 64 x.
